Measured values from the NIST ThermoML archive (doi:10.1016/j.jct.2010.06.009).

Assay: activity coefficient (dimensionless); of the first substance listed, at infinite dilution; xn = mol fraction of the nth substance listed
Conditions: 101 kPa, Liquid, Chromatography, x1 = 0

CCCCC [pentane] + CCCCC[n+]1ccccc1.O=S(=O)([N-]S(=O)(=O)C(F)(F)F)C(F)(F)F
Conditions	activity coefficient
303.3 K	5.03
312.7 K	4.17
323.4 K	3.42
333.3 K	2.89
343.3 K	2.41
353.3 K	2.07

Cc1ccc(C)cc1 [1,4-dimethylbenzene] + CCCC[n+]1ccccc1.O=S(=O)([N-]S(=O)(=O)C(F)(F)F)C(F)(F)F
Conditions	activity coefficient
302.8 K	2.45
312.5 K	2.48
323.3 K	2.49
333.3 K	2.52
343.1 K	2.54
353.3 K	2.54

CCCO [propan-1-ol] + CC[n+]1ccccc1.O=S(=O)([N-]S(=O)(=O)C(F)(F)F)C(F)(F)F
Conditions	activity coefficient
302.5 K	3.56
313.1 K	3.18
323 K	2.85
332.9 K	2.57
342.9 K	2.29
353 K	2.06

C=CCCCCCC [oct-1-ene] + CCCC[n+]1ccccc1.O=S(=O)([N-]S(=O)(=O)C(F)(F)F)C(F)(F)F
Conditions	activity coefficient
302.5 K	22.3
313 K	19.7
323.2 K	18.4
332.8 K	15.7
343 K	13.6
352.9 K	11.9

C#CCCC [1-pentyne] + CC[n+]1ccccc1.O=S(=O)([N-]S(=O)(=O)C(F)(F)F)C(F)(F)F
Conditions	activity coefficient
302.5 K	3.2
313.2 K	3
323 K	2.73
333 K	2.52
342.9 K	2.23
353.1 K	2.03

C=CCCCC [hex-1-ene] + CC[n+]1ccccc1.O=S(=O)([N-]S(=O)(=O)C(F)(F)F)C(F)(F)F
Conditions	activity coefficient
302.6 K	11.5
313.1 K	9.42
322.9 K	7.86
332.8 K	6.54
342.9 K	5.34
353 K	4.4

Cc1ccccc1 [toluene] + CCCCC[n+]1ccccc1.O=S(=O)([N-]S(=O)(=O)C(F)(F)F)C(F)(F)F
Conditions	activity coefficient
303.1 K	1.28
312.8 K	1.3
323.3 K	1.33
333.3 K	1.34
343.3 K	1.36
353.5 K	1.36

Cc1cccc(C)c1 [1,3-dimethylbenzene] + CCCC[n+]1ccccc1.O=S(=O)([N-]S(=O)(=O)C(F)(F)F)C(F)(F)F
Conditions	activity coefficient
302.8 K	2.47
312.5 K	2.49
323.3 K	2.5
333.3 K	2.51
343.1 K	2.52
353.3 K	2.53

C=CCCCCCCCC [1-decene] + CC[n+]1ccccc1.O=S(=O)([N-]S(=O)(=O)C(F)(F)F)C(F)(F)F
Conditions	activity coefficient
302.9 K	85.8
313.2 K	77.2
323.2 K	70
332.8 K	62.7
342.9 K	54.5
353 K	46.9

C#CCCCCCC [1-octyne] + CCCC[n+]1ccccc1.O=S(=O)([N-]S(=O)(=O)C(F)(F)F)C(F)(F)F
Conditions	activity coefficient
302.6 K	8.1
313.4 K	7.82
323.2 K	7.6
333.1 K	7.34
343.1 K	7.05
353.1 K	6.8

C=CCCCC [hex-1-ene] + CCCC[n+]1ccccc1.O=S(=O)([N-]S(=O)(=O)C(F)(F)F)C(F)(F)F
Conditions	activity coefficient
302.3 K	8.87
312.9 K	7.45
323 K	6.38
332.8 K	5.29
343 K	4.33
352.8 K	3.71

CCCCCCC [heptane] + CC[n+]1ccccc1.O=S(=O)([N-]S(=O)(=O)C(F)(F)F)C(F)(F)F
Conditions	activity coefficient
302.8 K	29.3
313.3 K	23.1
323.1 K	18.6
333 K	14.7
342.9 K	11.8
353 K	9.37

Cc1ccccc1C [1,2-dimethylbenzene] + CC[n+]1ccccc1.O=S(=O)([N-]S(=O)(=O)C(F)(F)F)C(F)(F)F
Conditions	activity coefficient
303.1 K	2.66
313.2 K	2.67
323.3 K	2.68
333.1 K	2.7
343.1 K	2.7
353.1 K	2.71

CC1CCCCC1 [methylcyclohexane] + CCCCC[n+]1ccccc1.O=S(=O)([N-]S(=O)(=O)C(F)(F)F)C(F)(F)F
Conditions	activity coefficient
303.1 K	10.2
312.7 K	9.39
323.4 K	8.48
333.3 K	7.64
343.3 K	6.84
353.3 K	6.08

CCO [ethanol] + CCCC[n+]1ccccc1.O=S(=O)([N-]S(=O)(=O)C(F)(F)F)C(F)(F)F
Conditions	activity coefficient
302.5 K	2.67
313.4 K	2.26
323.1 K	2.02
333.1 K	1.8
343.1 K	1.61
352.9 K	1.45

C=CCCCC [hex-1-ene] + CCCCC[n+]1ccccc1.O=S(=O)([N-]S(=O)(=O)C(F)(F)F)C(F)(F)F
Conditions	activity coefficient
302.9 K	6.22
312.8 K	5.46
322.6 K	4.84
333.4 K	4.17
343.4 K	3.55
353.4 K	3.08

CCCCCC [hexane] + CCCCC[n+]1ccccc1.O=S(=O)([N-]S(=O)(=O)C(F)(F)F)C(F)(F)F
Conditions	activity coefficient
303.3 K	9.78
312.7 K	8.36
323.4 K	7
333.3 K	5.98
343.3 K	5.01
353.3 K	4.25

C#CCCCC [1-hexyne] + CCCC[n+]1ccccc1.O=S(=O)([N-]S(=O)(=O)C(F)(F)F)C(F)(F)F
Conditions	activity coefficient
303.5 K	3.92
313.3 K	3.72
323.2 K	3.5
333.1 K	3.29
343.1 K	3.04
353.1 K	2.82

Cc1ccc(C)cc1 [1,4-dimethylbenzene] + CC[n+]1ccccc1.O=S(=O)([N-]S(=O)(=O)C(F)(F)F)C(F)(F)F
Conditions	activity coefficient
302.6 K	3.04
313.3 K	3.05
323.2 K	3.07
333.1 K	3.08
343 K	3.09
353.1 K	3.11

C#CCCCC [1-hexyne] + CCCCC[n+]1ccccc1.O=S(=O)([N-]S(=O)(=O)C(F)(F)F)C(F)(F)F
Conditions	activity coefficient
302.8 K	2.92
313.6 K	2.82
323.4 K	2.66
333.3 K	2.53
343.3 K	2.42
353.3 K	2.29

CCCCCCCCC [nonane] + CCCCC[n+]1ccccc1.O=S(=O)([N-]S(=O)(=O)C(F)(F)F)C(F)(F)F
Conditions	activity coefficient
303.2 K	36
312.7 K	33.3
323.4 K	30.2
333.3 K	27.3
343.3 K	24.2
353.3 K	21.4

C#CCCCCC [1-heptyne] + CC[n+]1ccccc1.O=S(=O)([N-]S(=O)(=O)C(F)(F)F)C(F)(F)F
Conditions	activity coefficient
302.5 K	8.41
313.2 K	7.96
323 K	7.5
333 K	7.06
342.9 K	6.53
353 K	5.92

C#CCCC [1-pentyne] + CCCC[n+]1ccccc1.O=S(=O)([N-]S(=O)(=O)C(F)(F)F)C(F)(F)F
Conditions	activity coefficient
302.2 K	2.67
313.4 K	2.4
323.2 K	2.23
333.1 K	2.04
343 K	1.88
353.1 K	1.68

c1ccccc1 [benzene] + CCCCC[n+]1ccccc1.O=S(=O)([N-]S(=O)(=O)C(F)(F)F)C(F)(F)F
Conditions	activity coefficient
303.2 K	0.98
312.6 K	0.99
323.2 K	1.01
333.1 K	1.02
343.3 K	1.03
353.5 K	1.04

CCc1ccccc1 [ethylbenzene] + CCCC[n+]1ccccc1.O=S(=O)([N-]S(=O)(=O)C(F)(F)F)C(F)(F)F
Conditions	activity coefficient
302.8 K	2.74
312.6 K	2.75
323.3 K	2.77
333.2 K	2.77
343.2 K	2.78
353.3 K	2.78

C=CCCCCCCCC [1-decene] + CCCC[n+]1ccccc1.O=S(=O)([N-]S(=O)(=O)C(F)(F)F)C(F)(F)F
Conditions	activity coefficient
302.5 K	46.7
313.2 K	40.1
322.8 K	39.6
332.8 K	34.6
342.9 K	31.2
353 K	28.1

CCO [ethanol] + CCCCC[n+]1ccccc1.O=S(=O)([N-]S(=O)(=O)C(F)(F)F)C(F)(F)F
Conditions	activity coefficient
302.8 K	2.09
313.5 K	1.86
323.4 K	1.67
333.3 K	1.5
343.2 K	1.35
353.4 K	1.19

CC1CCCCC1 [methylcyclohexane] + CCCC[n+]1ccccc1.O=S(=O)([N-]S(=O)(=O)C(F)(F)F)C(F)(F)F
Conditions	activity coefficient
302.8 K	14.1
312.4 K	12.7
323.2 K	11.6
333.1 K	10.1
343.3 K	8.44
353.4 K	7.2

C#CCCC [1-pentyne] + CCCCC[n+]1ccccc1.O=S(=O)([N-]S(=O)(=O)C(F)(F)F)C(F)(F)F
Conditions	activity coefficient
302.8 K	2.01
313.5 K	1.88
323.4 K	1.75
333.3 K	1.62
343.2 K	1.5
353.4 K	1.39

CCc1ccccc1 [ethylbenzene] + CCCCC[n+]1ccccc1.O=S(=O)([N-]S(=O)(=O)C(F)(F)F)C(F)(F)F
Conditions	activity coefficient
303.1 K	1.93
312.8 K	1.95
323.4 K	1.96
333.4 K	1.98
343.3 K	1.99
353.5 K	2

CCCCCCCC [octane] + CCCCC[n+]1ccccc1.O=S(=O)([N-]S(=O)(=O)C(F)(F)F)C(F)(F)F
Conditions	activity coefficient
303.2 K	25
312.7 K	22.8
323.4 K	20.3
333.3 K	18
343.3 K	15.7
353.3 K	13.7

C#CCCCCC [1-heptyne] + CCCCC[n+]1ccccc1.O=S(=O)([N-]S(=O)(=O)C(F)(F)F)C(F)(F)F
Conditions	activity coefficient
302.8 K	4.17
313.6 K	4
323.4 K	3.87
333.3 K	3.74
343.3 K	3.58
353.3 K	3.42

CCCCCCC [heptane] + CCCC[n+]1ccccc1.O=S(=O)([N-]S(=O)(=O)C(F)(F)F)C(F)(F)F
Conditions	activity coefficient
302.8 K	21.8
312.4 K	19.4
323.2 K	16.8
333.2 K	13.8
343.3 K	11.4
353.4 K	9.35

CCCCCCCCC [nonane] + CCCC[n+]1ccccc1.O=S(=O)([N-]S(=O)(=O)C(F)(F)F)C(F)(F)F
Conditions	activity coefficient
303.1 K	52.3
312.6 K	50
323.3 K	45.6
333.3 K	38.6
343.3 K	33.3
353.4 K	28.1

CCCCCCC [heptane] + CCCCC[n+]1ccccc1.O=S(=O)([N-]S(=O)(=O)C(F)(F)F)C(F)(F)F
Conditions	activity coefficient
303.2 K	16.5
312.7 K	14.6
323.4 K	12.6
333.3 K	11
343.3 K	9.35
353.3 K	7.98

CCO [ethanol] + CC[n+]1ccccc1.O=S(=O)([N-]S(=O)(=O)C(F)(F)F)C(F)(F)F
Conditions	activity coefficient
302.5 K	2.63
313.1 K	2.36
323 K	2.13
332.9 K	1.91
342.9 K	1.71
353 K	1.54

C=CCCCCCCCC [1-decene] + CCCCC[n+]1ccccc1.O=S(=O)([N-]S(=O)(=O)C(F)(F)F)C(F)(F)F
Conditions	activity coefficient
303.1 K	26.4
312.6 K	25.1
322.6 K	23.8
333.4 K	22.1
343.4 K	20.6
353.4 K	19.3

CCCO [propan-1-ol] + CCCCC[n+]1ccccc1.O=S(=O)([N-]S(=O)(=O)C(F)(F)F)C(F)(F)F
Conditions	activity coefficient
302.8 K	2.53
313.6 K	2.23
323.4 K	2.02
333.3 K	1.84
343.3 K	1.65
353.3 K	1.49

C=CCCCCCC [oct-1-ene] + CCCCC[n+]1ccccc1.O=S(=O)([N-]S(=O)(=O)C(F)(F)F)C(F)(F)F
Conditions	activity coefficient
303 K	14.2
312.6 K	13.2
322.6 K	12.2
333.4 K	11
343.4 K	9.95
353.4 K	9.08

Cc1ccccc1 [toluene] + CCCC[n+]1ccccc1.O=S(=O)([N-]S(=O)(=O)C(F)(F)F)C(F)(F)F
Conditions	activity coefficient
302.8 K	1.8
312.6 K	1.82
323.3 K	1.83
333.2 K	1.83
343.2 K	1.85
353.3 K	1.86

C#CCCCCC [1-heptyne] + CCCC[n+]1ccccc1.O=S(=O)([N-]S(=O)(=O)C(F)(F)F)C(F)(F)F
Conditions	activity coefficient
302.8 K	5.63
313.3 K	5.49
323.2 K	5.29
333.1 K	5.03
343.1 K	4.79
353.1 K	4.58
